According to patent US20070128217A1 (priority 2003, published 2007):

Columns and labels:
[1] = tested on: antibodies in sera from SARS patients (sera 1a, 1b, 2, 6, 37, 62, London, SARS-yellow, SARS-green); assay type: binding, human; parameters: Binding of serum 6 to linear peptides of protein X1 of SARS-CoV Urbani / Binding of serum 37 to linear peptides of protein X1 of SARS-CoV Urbani / Binding of serum 6 to looped/cyclic peptide (PEPSCAN-ELISA) / Binding of serum 37 to looped/cyclic peptide (PEPSCAN-ELISA) / Binding of serum 37 to looped/cyclic peptides of protein X1 of SARS-CoV Urbani / Binding of serum 6 to linear peptides of protein X2 / Binding of serum 37 to linear peptides of protein X2 / Binding of serum 37 to looped/cyclic peptides of protein X2 of SARS-CoV Urbani / Binding of serum 6 to linear peptides of protein M of SARS-CoV Urbani / Binding of serum 37 to linear peptides of protein M of SARS-CoV Urbani / Binding of serum 6 to looped/cyclic peptides of protein M of SARS-CoV Urbani / Binding of serum 37 to looped/cyclic peptides of protein M of SARS-CoV Urbani / Binding of serum 6 to linear peptides of protein X3 of SARS-CoV Urbani / Binding of serum 37 to linear peptides of protein X3 of SARS-CoV Urbani / Binding of serum 37 to looped/cyclic peptides of protein X3 of SARS-CoV Urbani / Binding of serum 6 to linear peptides of protein X4 of SARS-CoV Urbani / Binding of serum 37 to linear peptides of protein X4 of SARS-CoV Urbani / Binding of serum 37 to looped/cyclic peptides of protein X4 of SARS-CoV Urbani / Binding of serum 6 to linear peptides of protein X5 of SARS-CoV Urbani / Binding of serum 37 to linear peptides of protein X5 of SARS-CoV Urbani / Binding of serum 37 to looped/cyclic peptides of protein X5 of SARS-CoV Urbani / Binding of serum 6 to linear peptides of protein N of SARS-CoV Urbani / Binding of serum 37 to linear peptides of protein N of SARS-CoV Urbani / Binding of serum 6 to linear peptide (PEPSCAN-ELISA) / Binding of serum 1a to looped/cyclic peptides of protein N of SARS-CoV Urbani / Binding of serum 1b to looped/cyclic peptides of protein N of SARS-CoV Urbani / Binding of serum 2 to looped/cyclic peptides of protein N of SARS-CoV Urbani / Binding of serum 6 to looped/cyclic peptides of protein N of SARS-CoV Urbani / Binding of serum 37 to looped/cyclic peptides of protein N of SARS-CoV Urbani / Binding of serum 62 to looped/cyclic peptides of protein N of SARS-CoV Urbani / Binding of serum London to looped/cyclic peptides of protein N of SARS-CoV Urbani / Binding of serum SARS-green to looped/cyclic peptides of protein N of SARS-CoV Urbani: unit not given here
[2] = tested on: control sera (pooled serum of ten healthy LUMC hospital workers; commercial negative donor pooled serum from the Dutch bloodbank); assay type: binding, human; parameters: Binding of Control serum LUMC to linear peptides / Binding of Control serum Blood-bank to linear peptides / Binding of Control serum LUMC to looped peptides / Binding of Control Serum Blood-Bank to Looped peptides / Binding of Control serum LUMC to linear peptides of the protein M of SARS-CoV Urbani / Binding of Control serum Blood-bank to linear peptides of the protein M of SARS-CoV Urbani / Binding of Control serum LUMC to looped peptides of the protein M of SARS-CoV Urbani / Binding of Control Serum Blood-Bank to Looped peptides of the protein M of SARS-CoV Urbani: unit not given here
[3] = tested on: rabbit serum obtained by immunizing a rabbit with the SARS-CoV strain Frankfurt 1; assay type: binding; parameters: Binding of a rabbit serum to linear peptides / Binding of a rabbit serum to looped peptides / Rabbit serum linear peptides / Rabbit serum looped peptides / Binding of a rabbit serum to linear peptides of protein N of SARS-CoV Urbani (Rabbit serum linear peptides) / Binding of a rabbit serum to looped/cyclic peptides of protein N of SARS-CoV Urbani (Rabbit serum looped peptides): unit not given here
[4] = tested on: recombinant human anti-SARS-CoV antibody 03-018; assay type: binding; parameters: Binding of antibody 03-018 to linear peptides of the N protein of SARS-CoV Urbani / Binding of antibody 03-018 to looped/cyclic peptides of the N protein of SARS-CoV Urbani: unit not given here

Sequence	Binding of serum 1a to linear peptides of protein N of SARS-CoV Urbani [1]	Binding of serum 1a to looped/cyclic peptides of protein N of SARS-CoV Urbani [1]	Binding of serum 1b to linear peptides of protein N of SARS-CoV Urbani [1]	Binding of serum 1b to looped/cyclic peptides of protein N of SARS-CoV Urbani [1]	Binding of serum 2 to linear peptides of protein N of SARS-CoV Urbani [1]	Binding of serum 2 to looped/cyclic peptides of protein N of SARS-CoV Urbani [1]	Binding of serum 6 to linear peptides of protein N of SARS-CoV Urbani [1]	Binding of serum 6 to looped/cyclic peptides of protein N of SARS-CoV Urbani [1]	Binding of serum 37 to linear peptides of protein N of SARS-CoV Urbani [1]	Binding of serum 37 to looped/cyclic peptides of protein N of SARS-CoV Urbani [1]	Binding of serum 62 to linear peptides of protein N of SARS-CoV Urbani [1]	Binding of serum 62 to looped/cyclic peptides of protein N of SARS-CoV Urbani [1]	Binding of serum London to linear peptides of protein N of SARS-CoV Urbani [1]	Binding of serum London to looped/cyclic peptides of protein N of SARS-CoV Urbani [1]	Binding of serum SARS-green to looped/cyclic peptides of protein N of SARS-CoV Urbani [1]	Binding of serum SARS-yellow to looped/cyclic peptides of protein N of SARS-CoV Urbani [1]	Binding of a rabbit serum to linear peptides of protein N of SARS-CoV Urbani (Rabbit serum linear peptides) [3]	Binding of a rabbit serum to looped/cyclic peptides of protein N of SARS-CoV Urbani (Rabbit serum looped peptides) [3]	Binding of antibody 03-018 to linear peptides of the N protein of SARS-CoV Urbani [4]	Binding of antibody 03-018 to looped/cyclic peptides of the N protein of SARS-CoV Urbani [4]	further results
PPTEPKKDKKKKTDE	0.2	0.2	0.1	0.1	2.0	0.2	0.2	0.1	0.6	0.4	0.7	0.2	0.5	0.2	0.0	0.2	0.2	0.2	0.1	0.2	Binding of serum SARS-green to linear peptides of protein N of SARS-CoV Urbani [1]: 0.3; Binding of serum SARS-yellow to linear peptides of protein N of SARS-CoV Urbani [1]: 0.6; Control Serum Blood-Bank Looped peptides [2]: 0.4; Control serum Blood-bank linear peptides [2]: 0.6; Control serum LUMC linear peptides [2]: 0.7; Control serum LUMC looped peptides [2]: 0.3
RRGPEQTQGNFGDQD		0.3		0.2		0.2		0.1		0.4		0.2		0.2	0.6	0.4	0.1	0.1	0.1	0.2	Recognition of the peptide by sera of SARS-CoV infected individuals, and form (linear, looped/cyclic) in which it is recognized [1]: recognized in linear form; Binding of Control Serum Blood-Bank to Looped peptides [2]: 0.3; Binding of Control serum Blood-bank to linear peptides [2]: 0.6; Binding of Control serum LUMC to linear peptides [2]: 0.6; Binding of Control serum LUMC to looped peptides [2]: 0.4
KKPRQKRTATKQYNV		0.3		0.1		0.4		0.3		0.6		0.5		0.5	0.1	0.4	0.3	0.0	0.1	0.2	Binding of serum 1a to linear peptide (PEPSCAN-ELISA) [1]: 0.2; Binding of serum 1b to linear peptide (PEPSCAN-ELISA) [1]: 0.1; Binding of serum 2 to linear peptide (PEPSCAN-ELISA) [1]: 0.3; Binding of serum 6 to linear peptide (PEPSCAN-ELISA) [1]: 0.2; Binding of serum 37 to linear peptide (PEPSCAN-ELISA) [1]: 0.8; Binding of serum 62 to linear peptide (PEPSCAN-ELISA) [1]: 0.8; Binding of serum London to linear peptide (PEPSCAN-ELISA) [1]: 0.7; Binding of serum SARS-green to linear peptide (PEPSCAN-ELISA) [1]: 0.1; Binding of serum SARS-yellow to linear peptide (PEPSCAN-ELISA) [1]: 0.6; Binding of Control Serum Blood-Bank to Looped peptides [2]: 0.4; Binding of Control serum Blood-bank to linear peptides [2]: 0.6; Binding of Control serum LUMC to linear peptides [2]: 0.7; Binding of Control serum LUMC to looped peptides [2]: 0.5
TPSGTWLTYHGAIKL	0.2	0.4	0.1	0.2	0.2	0.4	0.2	0.2	0.7	0.8	0.6	0.8	0.7	0.5	0.3	0.4	0.1	0.4	0.1	0.2	Binding of serum SARS-green to linear peptides of protein N of SARS-CoV Urbani [1]: 0.3; Binding of serum SARS-yellow to linear peptides of protein N of SARS-CoV Urbani [1]: 0.5; Control Serum Blood-Bank Looped peptides [2]: 0.7; Control serum Blood-bank linear peptides [2]: 0.8; Control serum LUMC linear peptides [2]: 0.6; Control serum LUMC looped peptides [2]: 0.5
HGAIKLDDKDPQFKD	0.2	0.2	0.1	0.1	0.2	0.2	0.1	0.1	0.8	0.5	0.7	0.3	0.6	0.3	0.3	0.3	0.1	0.3	0.1	0.2	Binding of serum SARS-green to linear peptides of protein N of SARS-CoV Urbani [1]: 0.4; Binding of serum SARS-yellow to linear peptides of protein N of SARS-CoV Urbani [1]: 0.6; Control Serum Blood-Bank Looped peptides [2]: 0.4; Control serum Blood-bank linear peptides [2]: 0.6; Control serum LUMC linear peptides [2]: 0.6; Control serum LUMC looped peptides [2]: 0.4
